Data taken from patent US20100160351A1, “PHARMACEUTICAL COMPOSITIONS AND METHODS FOR TREATING HYPERURICEMIA AND RELATED DISORDERS” (NUON THERAPEUTICS, INC., priority 2008, published 2010).

Legend:
[1] = tested on: monosodium urate (MSU) crystal-induced air pouch inflammation; assay: Air Pouch Model 1: MSU crystal air pouch, rodent model of gout; type: in vivo, male Sprague-Dawley rats; settings: for Average Exudate Volume / Average Plasma Extravasation, OD620 nm / Total WBC in Sample / WBC: +MSU, 4 h
Procedure: (§1) The objective of this study was to evaluate the anti-inflammatory affects of tranilast versus a clinically active treatment for gout, colchicine, as well as a clinically active non-steroidal antiinflammatory drug, indomethacin. This evaluation was carried out in male Sprague-Dawley rats in a rodent model of gout. The animals were injected subcutaneously with 20 ml of sterile air, followed three days later by a supplemental injection with 20 ml of sterile air. Six days after the initial sterile air injection, the rats were injected intravenously with Evan's Blue and pretreated for thirty minutes with either a subcutaneous injection of colchicine (1 mg/kg) or indomethacin (5 mg/kg) or oral administration with either 200 mg/kg or 400 mg/kg of tranilast. After the pretreatment period, the rats were injected with 150 mg of monosodium urate (MSU) crystals (10 mg·ml) into the air pouch. Four hours later, the air pouch was injected with 5 ml heparinized saline and the entire contents of the air pouch removed, recording the total volume. The air pouch contents were evaluated for plasma extravasation and total white blood cell (WBC) count.
(§2) On day 0 the rats were anesthetized in a biological cabinet, the nape of the neck was cleansed with 70% isopropanol followed by iodine tincture (VEDCO, lot L021976). Twenty ml sterile (0.22 μm, Fisher Scientific, Cat. 09-720-3, lot R5SN25683) air was injected subcutaneously using a 23 G×2 inch needle fixed to a 20 ml syringe. The rats were returned to routine housing. No adverse reactions were observed.
as §2, with “day 3” for “day 0”
On day 6 the rats were weighed (Mettler, Model PE3000, SN: F69474) and sorted into six treatment groups of ten animals each, based upon average weight. The animals were either dosed subcutaneously with 1 ml/kg colchicine or indomethacin, or orally with either 4 ml/kg or 8 ml/kg tranilast, or 8 ml/kg vehicle. Immediately after test material administration, the rats were intravenously injected with 2 ml/kg Evans Blue.
(§3) Thirty minutes after test material administration, the rats were anesthetized and five groups were injected into the air pouch with 15 ml MSU using an 18 G×1 inch needle fitted to a 20 ml syringe. The sixth group was injected with 15 ml saline. The rats were returned to their cages, no adverse affects were observed.
(§4) Four hours after MSU injection, the rats were anesthetized and 5 ml 10 U/ml heparinized saline was injected into the air pouch. The air pouch was gently massaged, the contents immediately removed using a 14 G×1 inch needle fitted to a 6 ml syringe, and the exudate volume recorded. An aliquot of the exudate was transferred to heparin-treated microtainer tubes (Becton Dickinson, Cat. 365958, lot 8093666, exp. June 09) for white blood cell (WBC) counting. The remainder of the exudate was centrifuged (Hermle Labrotechnik, Model Z200A, SN: 44060036), the supernatants removed and evaluated at OD620nm (Spectronic Unicam, Model 4000 1/4, SN: 3SGD003006) for plasma extravasation.

[2] = tested on: monosodium urate (MSU) crystal-induced air pouch inflammation; assay: Air Pouch Model 2: MSU crystal air pouch, rodent model of gout; type: in vivo, male Sprague-Dawley rats; settings: for Average Exudate Volume, Mean / Average Plasma Extravasation, OD620 nm, Mean / Total WBC in Sample, Mean / WBC in exudate, Mean: 4 h after MSU
Procedure: as §1, with “potency” for “affects”, “Tranilast.” for “tranilast versus a clinically active treatment for gout, colchicine, as well as a clinically active non-steroidal antiinflammatory drug, indomethacin.”, “with” for “with either a subcutaneous injection of colchicine (1 mg/kg) or indomethacin (5 mg/kg) or”, “of 25 mg/kg, 50 mg/kg, 100 mg/kg or” for “with either”, “mg/kg” for “mg/kg or 400 mg/kg of”, “mg/ml)” for “mg·ml)”
as §2, with “Millipore,” for “Fisher Scientific,”, “SLGSV255F,” for “09-720-3,”, “R8J1494130, exp July 2011)” for “R5SN25683)”
as §2, with “day 3” for “day 0”
On day 6 the rats were weighed (Mettler, Model PE3000, SN: F69474) and injected intravenously injected with 2 ml/kg Evans Blue. The animals were dosed orally with 0.5 ml/kg, 1 ml/kg, 2; ml/kg or 4 ml/kg tranilast, or 4 ml/kg vehicle.
as §3, with “groups (2-6)” for “groups”, “a 19 G×2” for “an 18 G×1”, “Group 1” for “The sixth group”
as §4, with “MSU/saline” for “MSU”, “9140110, expo July 2010)” for “8093666, exp. June 09)”

[3] = Group 4: tranilast 200 mg/kg oral
[4] = Group 5: tranilast 400 mg/kg oral
[5] = oral tranilast 30 min before MSU, regardless of dose (200 or 400 mg/kg)
[6] = 25 mg/kg oral, 30 min before MSU
[7] = 50 mg/kg oral, 30 min before MSU
[8] = 100 mg/kg oral, 30 min before MSU
[9] = 200 mg/kg oral, 30 min before MSU
[10] = highest dose 200 mg/kg oral, 30 min before MSU
[11] = oral, sigmoidal dose-response (variable slope) analysis

IC50 effect on plasma extravasation [2, 11]: 45 mg/kg
IC50 effect on white blood cell infiltration [2, 11]: 16 mg/kg
Compound: COc1ccc(/C=C/C(=O)Nc2ccccc2C(=O)O)cc1OC [Tranilast, 2-[[3-(3,4-dimethoxyphenyl)-1-oxo-2-propenyl]amino]benzoic acid]
Average Exudate Volume [1, 3]: 6.5 mL
Average Plasma Extravasation, OD620 nm [1, 3]: 0.697
Total WBC in Sample [1, 3]: 15925556
WBC [1, 3]: 2524444 cells/ml
Average Exudate Volume [1, 4]: 5.3 mL
Average Plasma Extravasation, OD620 nm [1, 4]: 0.626
Total WBC in Sample [1, 4]: 15162222
WBC [1, 4]: 3144444 cells/ml
inhibition of plasma extravasation [1, 5]: 60%
inhibition of white blood cell infiltration [1, 5]: 95%
Average Exudate Volume, Mean [2, 6]: 6.5 mL
Average Plasma Extravasation, OD620 nm, Mean [2, 6]: 1.431
Total WBC in Sample, Mean [2, 6]: 20550000
WBC in exudate, Mean [2, 6]: 3196000 cells/ml
Average Exudate Volume, Mean [2, 7]: 8.6 mL
Average Plasma Extravasation, OD620 nm, Mean [2, 7]: 1.048
Total WBC in Sample, Mean [2, 7]: 12476000
WBC in exudate, Mean [2, 7]: 1557000 cells/ml
Average Exudate Volume, Mean [2, 8]: 8.0 mL
Average Plasma Extravasation, OD620 nm, Mean [2, 8]: 0.939
Total WBC in Sample, Mean [2, 8]: 10629600
WBC in exudate, Mean [2, 8]: 1566000 cells/ml
Average Exudate Volume, Mean [2, 9]: 3.2 mL
Average Plasma Extravasation, OD620 nm, Mean [2, 9]: 0.819
Total WBC in Sample, Mean [2, 9]: 10305200
WBC in exudate, Mean [2, 9]: 3516000 cells/ml
inhibition of plasma extravasation [2, 10]: 42%
inhibition of white blood cell infiltration [2, 10]: 80%
effect on MSU-induced parameters (plasma extravasation, leukocyte infiltration) ([2]; oral 25-200 mg/kg, 30 min before MSU): dose-dependent inhibition
